Data reported in article PMC7862169, “Restoration of renal TIMP3 levels via genetics and pharmacological approach prevents experimental diabetic nephropathy” (Clinical and Translational Medicine, 2021).

Legend:
[1] = cited from earlier work; for Kidney selectivity of carrier peptide: even with conjugated drugs
Source text: Many proteins and peptides take on an increasingly important role as therapeutics in areas including diabetes diseases mainly due to their potential to bind to targets in a selective manner, thus reducing undesired off‐target effects. ^17 Drug‐targeting delivery to the kidney is an attractive method to increase the pharmaceutical compounds efficacy, ^18 however it represents a promising but underdeveloped area. Recently, galectin‐3 targeted G3C12 peptide and ε‐polylysine derived, synthetic (KKEEE)3K peptide have been identified as novel highly kidney‐specific carriers with exceptional kidney s ...

[2] = target: T1, human recombinant MMP2 (Homo sapiens, UniProt P08253); test: MMP2 colorimetric Inhibitor Screening Assay kit; type: biochemical; conditions: 1 μM peptide, 0.9 U enzyme, 37°C 60 minutes before substrate, read at 412 nm, n = 3; Figures 5A, S4E
T1 construct: purchased Abcam
T1 sequence (P08253 110-660): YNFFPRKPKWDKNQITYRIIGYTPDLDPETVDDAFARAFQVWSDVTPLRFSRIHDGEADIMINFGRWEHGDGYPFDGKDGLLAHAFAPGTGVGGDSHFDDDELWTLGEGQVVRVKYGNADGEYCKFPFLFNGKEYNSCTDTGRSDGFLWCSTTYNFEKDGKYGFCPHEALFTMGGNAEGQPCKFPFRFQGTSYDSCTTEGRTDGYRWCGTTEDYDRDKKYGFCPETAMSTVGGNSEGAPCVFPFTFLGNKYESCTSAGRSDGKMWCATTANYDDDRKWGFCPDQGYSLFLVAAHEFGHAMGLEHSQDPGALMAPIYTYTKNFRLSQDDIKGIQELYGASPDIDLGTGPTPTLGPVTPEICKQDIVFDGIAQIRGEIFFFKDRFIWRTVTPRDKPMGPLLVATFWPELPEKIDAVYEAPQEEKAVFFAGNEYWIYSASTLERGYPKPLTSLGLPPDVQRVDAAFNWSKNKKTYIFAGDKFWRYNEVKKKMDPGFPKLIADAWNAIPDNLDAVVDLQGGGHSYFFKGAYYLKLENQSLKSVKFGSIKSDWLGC
Method: (§1) The MMP2/9 activities were evaluated using MMP2/MMP9 colorimetric Inhibitor Screening Assay kits (Abcam) under the manufacturer's instruction. In brief, 0.9 U of human recombinant MMP2 or MMP9 was mixed with 1 μM G3C12, G3C12‐NTIMP3, G3C12‐T2GNTIMP3 peptides, or 1.3 μM NNGH inhibitor as […]. The mixture was incubated at 37°C for 60 minutes then substrate was added. The plate was read at 412 nm by infinite F50 microplate reader (TECAN). Continuous recording was made at 1 minute interval for 20 minutes. The experiment was performed in triplicate.

[3] = target: T2, human recombinant MMP9 (Homo sapiens, UniProt P14780); test: MMP9 colorimetric Inhibitor Screening Assay kit; type: biochemical; conditions: 1 μM peptide, 0.9 U enzyme, 37°C 60 minutes before substrate, read at 412 nm, n = 3; Figures 5A, S4E
T2 construct: purchased Abcam
T2 sequence (P14780 94-707): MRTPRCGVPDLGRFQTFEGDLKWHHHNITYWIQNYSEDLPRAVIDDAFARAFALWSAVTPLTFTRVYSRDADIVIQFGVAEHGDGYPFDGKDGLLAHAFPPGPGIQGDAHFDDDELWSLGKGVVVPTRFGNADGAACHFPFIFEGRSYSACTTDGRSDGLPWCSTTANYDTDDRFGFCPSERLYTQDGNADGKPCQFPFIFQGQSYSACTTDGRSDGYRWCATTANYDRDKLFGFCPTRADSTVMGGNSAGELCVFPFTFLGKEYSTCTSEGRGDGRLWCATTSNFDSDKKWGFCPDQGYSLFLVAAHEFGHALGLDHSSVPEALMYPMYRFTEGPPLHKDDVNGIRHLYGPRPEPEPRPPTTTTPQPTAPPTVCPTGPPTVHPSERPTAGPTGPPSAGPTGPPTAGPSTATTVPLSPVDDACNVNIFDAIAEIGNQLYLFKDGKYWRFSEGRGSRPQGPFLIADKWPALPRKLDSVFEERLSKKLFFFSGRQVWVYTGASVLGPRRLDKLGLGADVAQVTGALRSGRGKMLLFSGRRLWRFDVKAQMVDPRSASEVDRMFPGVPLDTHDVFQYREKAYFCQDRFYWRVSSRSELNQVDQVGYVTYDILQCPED
Method: as §1

[4] = target: T3, human recombinant ADAM17 (Homo sapiens, UniProt P78536); test: ADAM17 activity, SensoLyte 520 TACE Activity Assay Kit; type: biochemical; conditions: 1 μM peptide, 1 μM enzyme, QXL520/5-FAM FRET substrate, 60 minutes, n = 3; Figures 5A, S4E
T3 construct: purchased R&D Systems
T3 sequence (P78536 215-824): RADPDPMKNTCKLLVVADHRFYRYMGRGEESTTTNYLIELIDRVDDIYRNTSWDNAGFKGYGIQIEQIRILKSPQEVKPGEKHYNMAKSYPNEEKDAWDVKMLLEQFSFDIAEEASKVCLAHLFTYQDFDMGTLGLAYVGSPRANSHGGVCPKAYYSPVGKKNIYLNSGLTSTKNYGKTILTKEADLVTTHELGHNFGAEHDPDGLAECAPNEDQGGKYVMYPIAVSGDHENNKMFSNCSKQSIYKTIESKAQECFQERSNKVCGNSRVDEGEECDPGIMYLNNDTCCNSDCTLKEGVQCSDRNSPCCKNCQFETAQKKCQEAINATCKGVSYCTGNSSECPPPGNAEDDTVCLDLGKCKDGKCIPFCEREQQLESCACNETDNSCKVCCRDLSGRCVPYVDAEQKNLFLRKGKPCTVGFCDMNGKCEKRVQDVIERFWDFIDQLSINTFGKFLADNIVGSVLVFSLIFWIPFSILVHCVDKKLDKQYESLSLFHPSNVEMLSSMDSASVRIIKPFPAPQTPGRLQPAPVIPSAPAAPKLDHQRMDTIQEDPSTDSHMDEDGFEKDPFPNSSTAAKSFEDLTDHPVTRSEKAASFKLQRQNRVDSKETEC
Method: ADAM17 activity was determined using the SensoLyte 520 TACE Activity Assay Kit (AnaSpec). 1 μM human recombinant ADAM17 (R&D Systems) was incubated with the QXL520/ 5‐FAM FRET substrate, derived from a sequence surrounding the cleavage site of ADAM17. For inhibitor studies, 1μM TAPI‐0 or 1 μM G3C12, G3C12‐NTIMP3 and G3C12‐T2GNTIMP3 peptides were used. Active ADAM17 cleaves FRET substrate into two separate fragments resulting in an increase of 5‐FAM fluorescence which can be monitored at excitation/emission = 490 nm/520 nm measured in a fluorescence microplate reader (Beckman Coulter DTX 800) continuously every 5 minutes for 60 minutes (10).

[5] = test system: diabetic DBA/2J mice; test: Peptide treatment of STZ diabetic mice: toxicity, behaviour, blood glucose; type: in vivo; conditions: STZ diabetic DBA/2J mice, 2 mg/kg iv, two injections per week for 8 weeks
Method: Diabetes was induced in 8‐week‐old mice by a multiple low‐dose streptozotocin (STZ) (Sigma) injection. STZ was given intraperitoneally (ip) at 50 mg/kg per day (freshly made in Na‐Citrate buffer, pH 4.5) for 5 consecutive days after a 4 hours fast. Control animals were treated with Na‐citrate buffer alone. Diabetes was defined as fed blood glucose level ≥250 mg/dL using a glucometer (OneTouch Ultra, LifeScan).
At 5 weeks after STZ or Na‐Citrate buffer administration, DBA/2J mice were randomly divided into the following four treatment groups: (1) vehicle buffer (PBS), (2) G3C12 free peptide, (3) G3C12‐NTIMP3 peptide, and (4) G3C12‐T2GNTIMP3 peptide. Peptides were dissolved in sterile PBS and administered intravenously (iv) by retro‐orbital injection (2 mg/kg body weight) in mice two times per week for 8 weeks.

| Substance | Kidney accumulation of carrier peptide [1] | Toxic profile of carrier peptide [1] | Kidney selectivity of carrier peptide [1] | Inhibition of human MMP2 enzyme activity (percentage of residual activity) [2] | Inhibition of human MMP9 enzyme activity (percentage of residual activity) [3] | Inhibition of human ADAM17 enzyme activity (percentage of residual activity) [4] | Changes in behavioral or nutritional status [5] | Toxic effects [5] |
| --- | --- | --- | --- | --- | --- | --- | --- | --- |
| (KKEEE)3K [ε‐polylysine derived, synthetic kidney‐specific carrier peptide] | rapid kidney accumulation | no toxic profile | exceptional kidney selectivity |  |  |  |  |  |
| ANTPCGPYTHDCPVKR [G3C12] | rapid kidney accumulation | no toxic profile | exceptional kidney selectivity | did not show any inhibitory activity | did not show any inhibitory activity | did not show any inhibitory activity | Neither have any changes been observed | No toxic effects were observed |
